# Reference: patent US8962602B2, “Anticancer steroidal lactones unsaturated in position 7 (8)” (Pharma Mar, S.A., priority 2010, dated 2015)
# Values joined by “and” are separate entries in the source; they are usually repeats but may differ in a detail not shown here. Equal entries are not always repeated. Where two headings read alike, the source gives them in different places.
# Experiments:
# Assay in all cases: Cytotoxicity assay, SRB colorimetric assay
# Type in all cases: cell-based
# [1] = tested on: A549; settings: for TGI / GI50: A549 lung carcinoma (NSCLC), 72 hours treatment; for TGI: total cell growth inhibition (cytostatic effect); for GI50 / CC50: Homo sapiens, A549, 72 h; for GI50: 50% cell growth inhibition; for CC50: read-out: LC50, A549 lung carcinoma (NSCLC), 72 hours treatment, 50% net cell killing (cytotoxic effect)
# From the text: (§1) The aim of this assay is to evaluate the in vitro cytostatic (ability to delay or arrest tumor cell growth) or cytotoxic (ability to kill tumor cells) activity of the samples being tested.
# (§2) A colorimetric assay, using sulforhodamine B (SRB) reaction has been adapted to provide a quantitative measurement of cell growth and viability (following the technique described by Skehan et al. J. Natl. Cancer Inst. 1990, 82, 1107-1112).
# (§3) This form of assay employs SBS-standard 96-well cell culture microplates (Faircloth et al. Methods in Cell Science, 1988, 11(4), 201-205; Mosmann et al, Journal of Immunological Methods, 1983, 65(1-2), 55-63). All the cell lines used in this study were obtained from the American Type Culture Collection (ATCC) and derive from different types of human cancer.
# (§4) Cells were maintained in Dulbecco's Modified Eagle Medium (DMEM) supplemented with 10% Fetal Bovine Serum (FBS), 2 mM L-glutamine, 100 U/mL penicillin and 100 U/mL streptomycin at 37° C., 5% CO2 and 98% humidity. For the experiments, cells were harvested from subconfluent cultures using trypsinization and resuspended in fresh medium before counting and plating.
# (§5) Cells were seeded in 96 well microtiter plates, at 5×10^3 cells per well in aliquots of 150 μL, and allowed to attach to the plate surface for 18 hours (overnight) in drug free medium. After that, one control (untreated) plate of each cell line was fixed (as described below) and used for time zero reference value. Culture plates were then treated with test compounds (50 μL aliquots of 4× stock solutions in complete culture medium plus 4% DMSO) using ten serial dilutions (concentrations ranging from 10 to 0.00262 μg/mL) and triplicate cultures (1% final concentration of DMSO). After 72 hours treatment, the antitumor effect was measured by using the SRB methodology: Briefly, cells were washed twice with PBS, fixed for 15 min in 1% glutaraldehyde solution at room temperature, rinsed twice in PBS, and stained in 0.4% SRB solution for 30 min at room temperature. Cells were then rinsed several times with 1% acetic acid solution and air-dried at room temperature. SRB was then extracted in 10 mM trizma base solution and the absorbance measured in an automated spectrophotometric plate reader at 490 nm. Effects on cell growth and survival were estimated by applying the NCl algorithm (Boyd M R and Paull K D. Drug Dev. Res. 1995, 34, 91-104).
# (§6) Using the mean±SD of triplicate cultures, a dose-response curve was automatically generated using nonlinear regression analysis. Three reference parameters were calculated (NCI algorithm) by automatic interpolation: GI50=compound concentration that produces 50% cell growth inhibition, as compared to control cultures; TGI=total cell growth inhibition (cytostatic effect), as compared to control cultures, and LC50=compound concentration that produces 50% net cell killing (cytotoxic effect).
# [2] = tested on: HT29; settings: for TGI: total cell growth inhibition (cytostatic effect); for GI50: 50% cell growth inhibition
# From the text: as §1, §2, §3, §4, §5, §6
# [3] = tested on: MDA-MB-231; settings: for GI50: 50% cell growth inhibition; for TGI: total cell growth inhibition (cytostatic effect)
# From the text: as §1, §2, §3, §4, §5, §6
# [4] = HT29 colorectal adenocarcinoma, 72 hours treatment
# [5] = Homo sapiens, HT-29, 72 h, HT29 colorectal adenocarcinoma, 72 hours treatment
# [6] = Homo sapiens, HT-29, 72 h, read-out: LC50, HT29 colorectal adenocarcinoma, 72 hours treatment, 50% net cell killing (cytotoxic effect)
# [7] = Homo sapiens, MDA-MB-231, 72 h, MDA-MB-231 breast adenocarcinoma, 72 hours treatment
# [8] = Homo sapiens, MDA-MB-231, 72 h, read-out: LC50, MDA-MB-231 breast adenocarcinoma, 72 hours treatment, 50% net cell killing (cytotoxic effect)
# [9] = MDA-MB-231 breast adenocarcinoma, 72 hours treatment
Structure (SMILES),TGI [1] [Molar],GI50 [1] [nM],CC50 [1] [nM],"TGI [2, 4]","GI50 [2, 5] [nM]","LC50 (50% net cell killing) [2, 6] [nM]","GI50 [3, 7] [nM]","CC50 [3, 8] [nM]","TGI [3, 9]","GI50 [2, 4] [nM]","LC50 (50% net cell killing) ([2]; read-out: LC50, HT29 colorectal adenocarcinoma, 72 hours treatment, 50% net cell killing (cytotoxic effect)) [nM]","GI50 [3, 9] [nM]","CC50 ([3]; read-out: LC50, MDA-MB-231 breast adenocarcinoma, 72 hours treatment, 50% net cell killing (cytotoxic effect)) [nM]"
CO[C@H]1C=C[C@]2(C)[C@H]3C[C@@H](O)[C@]4(C)[C@@H](c5ccc(=O)oc5)C(Cl)(Cl)C[C@]4(O)C3=CC[C@H]2C1(C)C [Aegomycin D],1.28E−8,8.64,18.3,1.35E−7 Molar,31.4,1450,64.8,173,9.81E−8 Molar,,,,
CO[C@H]1[C@H]2O[C@H]2[C@]2(C=O)[C@H]3CC[C@]4(C)[C@@H](c5ccc(=O)oc5)C(Cl)(Cl)C[C@]4(O)C3=CC[C@H]2C1(C)C [Aegomycin A],4.39E−9,3.82,5.35,3.25E−8 Molar,10.5,115,19.1,61.1,3.63E−8 Molar,,,,
CC1(C)C(=O)C=C[C@]2(C)[C@H]3CC[C@]4(C)[C@@H](c5ccc(=O)oc5)C(Cl)(Cl)C[C@]4(O)C3=CC[C@@H]12 [Aegomycin C],1.72E−8,7.54,41.9,1.05E−7 Molar,9.84,> 20900,62.8,691,1.97E−7 Molar,,,,
CO[C@H]1C=C[C@]2(C)[C@H]3CC[C@]4(C)[C@@H](c5ccc(=O)oc5)[C@@H](Cl)C[C@]4(O)C3=CC[C@H]2C1(C)C [Aegomycin G],6.32E−8,39.2,111,6.75E−7 Molar,146,3920,170,1290,4.36E−7 Molar,,,,
CC1(C)C(=O)C=C[C@]2(C)[C@H]3CC[C@]4(C)[C@@H](c5ccc(=O)oc5)[C@@H](Cl)C[C@]4(O)C3=CC[C@@H]12 [Aegomycin F],,,,4.06E−7 Molar and 2.03E−7 Molar,65.5,3160,88,948,2.71E−7 Molar and 2.03E−7 Molar,36.5,4860,81.1,608
CO[C@H]1[C@H]2O[C@H]2[C@]2(CO)[C@H]3CC[C@]4(C)[C@@H](c5ccc(=O)oc5)C(Cl)(Cl)C[C@]4(O)C3=CC[C@H]2C1(C)C [Aegomycin B],7.61E−9,5.9,11.4,2.28E−7 Molar,30.4,3040,76.1,381,1.67E−7 Molar,,,,
CO[C@H]1C=C[C@]2(C)[C@H]3CC[C@]4(C)[C@@H](c5ccc(=O)oc5)C(Cl)(Cl)C[C@]4(O)C3=CC[C@H]2C1(C)C [Aegomycin E],5.67E−8,42.6,75,4.86E−7 Molar,118,5270,197,750,3.65E−7 Molar,,,,
